The values that follow come from patent US20050113455A1, “Method and composition for amelioration of pain” (priority 2003, published 2005).

Series [1] concerns visceral nociception (stretching) in mice. The experiment in a line: Murine visceral pain model: stretching in mouse i.p. acetic acid test. It counts as in vivo. As to conditions: for Potency at inhibiting visceral nociception relative to morphine: mouse i.p. acetic acid test, dose-response relationships; for MED (minimum dose at which the number of stretches during the observation period is significantly different from saline controls): mouse, s.c. administration, 0.6% acetic acid i.p., 30 min observation. How it is done:
Dose-response relationships for the polyamines listed in Table 1 were performed in the mouse i.p. acetic acid test.
Assessment of Candidate Agents in a Murine Visceral Pain Model: There is an extensive literature on visceral pain in the acetic acid mouse model (Bidlack J M, Cohen D J, McLaughlin J P, Lou R, Ye Y, Wentland M P. 8-carboxamidocyclazocine: A long-acting, novel benzomorphan. J Pharmacol Exp Ther. 2002;302:374-380; Reichert J A, Daughters R S, Rivard R, Simone D A. Peripheral and preemptive opioid antinociception in a mouse visceral pain model. Pain. 2001;89:221-227; Farzin D, Asghari L, Nowrouzi M. Rodent antinociception following acute treatment with different histamine receptor agonists and antagonists. Pharmacol Biochem Behav. 2002;72:751-760; Hinschberger A, Butt 5, Lelong V, Boulouard M, Dumuis A, Dauphin F, Bureau R, Pfeiffer B, Renard P, Rault S. New benzo[h][1,6]naphthyridine and azepino[3,2-c]quinoline derivatives as selective antagonists of 5-ht4 receptors: Binding profile and pharmacological characterization. J Med Chem. 2003;46:138-147).
The mice receive either an s.c. or i.p. injection (0.3 mL) of either saline or a test drug at varying doses. Fifteen to thirty minutes following the treatment, the animals receive an i.p. injection of 0.6% acetic acid in saline (sterile, 0.3 mL). The mice are then placed into holding cages and observed for 30 mm. The number of stretches the animals make following the acetic acid injections are counted. A stretch is identified by the animal extending its hind legs well behind its body. This posture is rarely seen in a non-injected animal.

The conditions of series [2]: cited from earlier work.

On to `CCNCCCN[C@H]1CC[C@H](NCCCNCC)CC1` [CHX(3,4,3)-trans, N,N′-bis[3-(ethylamino)propyl]-trans-1,4-cyclohexanediamine], for which, in series [1], the “Potency at inhibiting visceral nociception relative to morphine” value is “more than three orders of magnitude more potent than morphine” and the “MED (minimum dose at which the number of stretches during the observation period is significantly different from saline controls)” value is 0.0037 mg/kg s.c.
With `CCCCNCCCNCCCCNCCCNCCCC` [DBSPM, N^1N^11-dibutylspermine], the “MED (minimum dose at which the number of stretches during the observation period is significantly different from saline controls)” value in series [1] was found to be 0.12 mg/kg s.c.
`CCNCCCCNCCCCNCCCCNCC` [DEHSPM, N^1,N^14-diethylhomospermine]: in series [1], the “Effectiveness in the murine visceral pain model (in words)” value (“Effectiveness” below) is on record as “highly effective” and the “Potency at inhibiting visceral nociception relative to morphine” value is reported as “equipotent to morphine”. For the same compound, the “Cognitive effects in human clinical trials” value in series [2] was “lack of cognitive effects”.
Turning to `CCNCCCNCCCNCCCNCC` [DENSPM, N^1,N^11-diethylnorspermine], in series [1], the “Effectiveness” value is “highly effective” and the “MED (minimum dose at which the number of stretches during the observation period is significantly different from saline controls)” value turned out to be 0.37 mg/kg s.c.
`CCNCCCNCCCCNCCCNCC` [DESPM, N^1,N^12-diethylspermine]: in series [1], the “Effectiveness” value is “less so”.
For `CC(C)NCCCNCCCCNCCCNC(C)C` [DIPSPM, N^1N^12-diisopropylspermime], the “Effectiveness” value in series [1] was “less so”.
On the same count and under the same terms, as for `C(CCNC1CCNCC1)CNC1CCNCC1` [PIP(3,4,3), N,N′-bis(4-piperidinyl)-1,4-butanediamine], the entry is “less so”.
As for `CN1CC[C@]23c4c5ccc(O)c4O[C@H]2[C@@H](O)C=C[C@H]3[C@H]1C5` [morphine, reference compound], the “Overt cognitive / behavioural effects in mice” value in series [1] (observed during mouse i.p. acetic acid test) was “produced stereotypical opiate induced hyperactivity and Straub tail”.
With “dihydroxydiethylnorspermine [(HO)2DENSPM]”, in series [1], the “MED (minimum dose at which the number of stretches during the observation period is significantly different from saline controls)” value is given as 0.0037 mg/kg s.c.
